Measurements taken from patent publication US5116851A, “Pharmaceutical composition and method for treating cardiovascular diseases using substituted anilides and sulfonamides” (E. R. Squibb & Sons, Inc., priority 1990, dated 1992).

Experiments:
[1] = system: isolated canine cardiac Purkinje fibers; experiment: Calcium-dependent slow response action potential amplitude (SAPA), standard microelectrode techniques; assay type: cell-based; conditions: Canis lupus familiaris, read-out: IC50 in reducing slow response action potential amplitude (SAPA)
Experimental: (§1) The calcium channel blocking and sodium entry blocking activities of compounds of the present invention were tested using standard microelectrode techniques in isolated canine cardiac Purkinje fibers as reported in J. L. Bergey et al., "Antiarrhythmic, hemodynamic, and cardiac electrophysiological evaluation of N-(2,6-dimethylphenyl)-N'-[3-(1-methylethylamino)propyl]-urea), (Wy 42,362)", Arzneim -Forsch, 33:1258, 1983). […] Depression of this parameter indicates depression of calcium entry into cardiac tissue. […] Significant depression of the upstroke velocity (vmax) indicates the blocking of sodium entry into cardiac tissue.

[2] = system: isolated canine cardiac Purkinje fibers; experiment: Normal action potential parameters incl. upstroke velocity (Vmax; sodium entry), standard microelectrode techniques; assay type: cell-based; conditions: for Vmax (velocity of upstroke): in V/s (unit assumed)
Experimental: as §1

rabbit aorta = experiment: Reduction of tone of rabbit aorta by high potassium (Vasc. Ca^++ Block); assay type: cell-based; conditions: Oryctolagus cuniculus; read-out: IC50 in reducing tone of rabbit aorta by high potassium (Vasc. Ca^++ Block)
Source text: |(SAPA), in reducing maximum upstroke velocity (Vmax) |and in reducing tone of rabbit aorta by high potassium |(Vasc. Ca^++ Block)

[3] = system: 24 hour post-infarction arrhythmias in dogs; experiment: Antiarrhythmic activity in standard canine arrhythmia model (24 hour post-infarction arrhythmias); assay type: in vivo, dog; conditions: intravenous doses ranging from 6 to 15 mg/kg
Experimental: Antiarrhythmic activity was confirmed for the compound of Example 1 using a standard canine arrhythmia model as reported in J. L. Bergey et al., "Antiarrhythmic, hemodynamic, and cardiac electrophysiological evaluation of N-(2,6-dimethylphenyl)-N'-[3-(1-methylethylamino)propyl]urea), (Wy 42,362)", Arzneim -Forsch, 33:1258, 1983). In dogs suffering from 24 hour post-infarction arrhythmias the compound of Example 1 reversed arrhythmias in 5 out of 5 dogs tested following intravenous doses ranging from 6 to 15 mg/kg.

[4] = system: Ischemic and Nonischemic Isolated Rat Heart; experiment: Isolated perfused rat heart (Langendorff), global ischemia/reperfusion: cardiac function, flow and LDH release; parameters: species or system rat (male Sprague-Dawley); FLOW (coronary blood flow): unit not given here; conditions: 1 μM
Experimental: Lactate dehydrogenase is an enzyme released in the heart during an ischemic event and is an index of cardiac cell necrosis. In the Grover et al. model, this is measured during reperfusion and an agent which provides for lower release levels of LDH is considered to offer greater cardioprotection since lower LDH indicates a smaller infarct size. Cardiac function is determined using the double product (DP) of heart rate times the left ventricular developed pressure (LVDP) divided by 1,000.
The lower the value for DP before ischemia for a given agent, the more cardiodepressant it is considered to be.
Male Sprague-Dawley rats (450-550 g) were used in all experiments. The rats were anesthetized using 30 mg/kg sodium pentobarbital (i.p.). They were intubated and then treated with i.v. heparin (1000 U/kg). While being mechanically ventilated, their hearts were perfused in situ via retrograde cannulation of the aorta. The hearts were then excised and quickly moved to a Langendorff apparatus where they were perfused with Krebs-Henseleit bicarbonate buffer (112 mM NaCl, 5 mM KCl, 1.2 mMMg SO4, 1 mM KH2 PO4, 1.25 mM CaCl2, 11.5 mM dextrose, and 2 mM pyruvate) at a constant pressure (75 mm Hg). A water filled latex balloon attached to a metal cannula was then inserted into the left ventricle and connected to a Statham pressure transducer for measurement of left ventricular pressure. The hearts were allowed to equilibrate for 15 minutes at which time end diastolic pressure (EDP) was adjusted to 5 mm Hg and this was maintained for 5 minutes. Pre-ischemia or pre-drug function, heart rate and coronary blood flow (extracorporeal electromagnetic flow probe, Carolina Medical Electronics, King, N.C.) were then measured. Cardiac function was determined using the double product of heart rate (HR) times left ventricular developed pressure (LVDP) divided by 1,000.
All of these hearts were treated with their respective drugs or vehicle for ten minutes. At this time, post-drug cardiac function and flow were measured and then the hearts were made globally ischemic by shutting off the buffer perfusion. The ischemia was maintained for 25 minutes at which time reperfusion with nondrug treated buffer was instituted. Reperfusion was maintained for 30 minutes and at this time reperfusion function and flow were again determined.
At the end of the reperfusion period, the reperfusion buffer was sampled for cumulative LDH release as previously described. LDH release was expressed as U/g preischemia heart weight for the 30 minute collection period. LDH release is a sensitive index for loss of cell viability. Determination of the relationship between pre-ischemic, post-drug cardiac function was made by dividing the double product (HR ×LVDP/1000) by the cumulative LDH release.
All data were analyzed using a one way analysis of variance. Multiple comparisons were done using the Duncan procedure. All data are expressed as the mean±SE.
The pre-ischemia DP values are a measure of the cardiodepression of the drug on the healthy cardiac tissue.
The post-ischemia LDH values are a measure of the cardioprotection or anti-ischemic activity of the drug. In this case, lower values indicate greater anti-ischemic activity or greater cardioprotection.
The LDH/DP values are the ratio of cardioprotection to cardiodepression, the lower values indicating a greater selectivity for anti-ischemic activity.
The post-ischemia DP indicates cardiodepression after the ischemic episode and the lower DP values here are indicative of agents which still remained in the cardiac tissue for more than 30 minutes post ischemia. [drawing 16]

[5] = Postischemia (30 min.), occlusion 25 minutes, reperfusion 30 minutes

SMILES: CN(C)CCCN(C(=O)Cc1ccccc1)c1ccccc1SCc1ccc(Cl)cc1 [Example 1, N-[2-[[(4-Chlorophenyl)methyl]thio]phenyl]-N-[3-(dimethylamino)propyl]benzeneacetamide]
- IC50 [1]: > 10 µM
- APD 50 (action potential duration @ 50% repolarization) ([2]; 1 × 10^-5): 160 ± 3
- APD90 (action potential duration @ 90% repolarization) ([2]; 1 × 10^-5): 320 ± 3
- PP (peak potential) ([2]; 1 × 10^-5): 11 ± 2
- RP (resting potential) ([2]; 1 × 10^-5): 89 ± 1
- Vmax (velocity of upstroke) ([2]; 1 × 10^-5): 203 ± 19
- APD 50 (action potential duration @ 50% repolarization) ([2]; 1 × 10^-6): 219 ± 3
- APD90 (action potential duration @ 90% repolarization) ([2]; 1 × 10^-6): 320 ± 3
- PP (peak potential) ([2]; 1 × 10^-6): 35 ± 1
- RP (resting potential) ([2]; 1 × 10^-6): 94 ± 1
- Vmax (velocity of upstroke) ([2]; 1 × 10^-6): 443 ± 7
- APD 50 (action potential duration @ 50% repolarization) ([2]; 3 × 10^-6): 154 ± 3
- APD90 (action potential duration @ 90% repolarization) ([2]; 3 × 10^-6): 305 ± 4
- PP (peak potential) ([2]; 3 × 10^-6): 28 ± 1
- RP (resting potential) ([2]; 3 × 10^-6): 89 ± 1
- Vmax (velocity of upstroke) ([2]; 3 × 10^-6): 375 ± 11
- IC50 ([2]; Canis lupus familiaris, purkinje, sodium entry, read-out: IC50 in reducing maximum upstroke velocity (Vmax)): 6.7 µM
- IC50 (rabbit aorta): 1.6 µM
- reversed arrhythmias (dogs tested) [3]: 5 out of 5
- DP (Double Product, HR x LVDP / 1,000) [4, 5]: 7
- FLOW (coronary blood flow) [4, 5]: 12
- HR (Heart Rate) [4, 5]: 211 beats/min
- LVDP (Left Ventricular Developed Pressure) [4, 5]: 34 mmHg
- LDH (Lactate Dehydrogenase Release) ([4]; Postischemia, cumulative over 30 min reperfusion, per g preischemia heart weight, lower = greater cardioprotection): 12 U/g
- FLOW (coronary blood flow) ([4]; Preischemia (Post Drug)): 25
- HR (Heart Rate) ([4]; Preischemia (Post Drug)): 229 beats/min
- LVDP (Left Ventricular Developed Pressure) ([4]; Preischemia (Post Drug)): 90 mmHg
- DP (Double Product, HR x LVDP / 1,000) ([4]; Preischemia (Post Drug), lower = more cardiodepressant): 21
- cardioprotection compared with diltiazem ([4]; post-ischemia LDH): comparable to diltiazem in cardioprotection
- LDH/DP ([4]; ratio of cardioprotection to cardiodepression, lower = greater selectivity): 0.55
